Tests used:
[1] = test system: E. coli; details: from EP 0 716 605 B1; cited from earlier work
[2] = test system: E. coli; assay: Prevention of adhesion of pathogenic germs to human uroepithelial cells; format: cell-based; details: human uroepithelial cells pre-incubated 1, 2 or 3 hours, various concentrations
Experimental: (§1) For this test, human uroepithelian cells obtained by centrifugation from morning urine as well as two strains of staphylococcus aureus and E. coli were used, each as a suspension with 10^9 germs/mL.
(§2) Epithelial cells and germ suspension were incubated together at 37° C. for 30 minutes. The epithelial cells then were separated from the non-adherent germs by membrane filtration (8μ). The filters were washed several times, placed into normal saline, and the epithelial cells were suspended in it. After centrifugation of the suspension in saline, the pellet was applied to slides and stained according to May-Grünwald and Giemsa. The number of germs adhering to 50 epithelial cells were counted. This number represented the blank value. Epithelial cells to which no germ solution had been added were used as a control.
(§3) In the main test, epithelial first were incubated with aqueous solutions of various concentrations consisting of pectin hydrolysis products produced according to the invention (according to Example 1) for 1, 2 or 3 hours. They were then combined with the germ suspension and treated further as described above. The measuring value was obtained by counting the germs adhering to 50 epithelial cells.

[3] = test system: staphylococcus aureus; assay: as above; format: cell-based; details: human uroepithelial cells pre-incubated 1, 2 or 3 hours, various concentrations
Experimental: as §1, §2, §3

[4] = test system: Caco-2; assay: Growth of colon cancer cell lines on extracellular matrix (ECM), living cell count by trypan blue; format: cell-based, human; details: for Reduction in Cell Growth: 48 hours
Experimental: (§4) Human colon cancer cell lines HT-29 or Caco-2 were seeded with a cell density of 1×10^4 cells/ml in 15 mm Petri dishes and cultivated in medium RPMI 1640+10% fetal calf serum (FCS) (HT-29) or, respectively, in MEM+10% FCS (Caco-2) at 37° C. under an atmosphere containing 5% CO2. The cells were left to grow for 1 to 2 days until reaching confluence. The dishes were then washed once with PBS, then incubated with PBS and 0.5% Triton X-100 for 30 minutes at room temperature on an agitator, and then washed 3 times with PBS. The previously described cell lines then were again seeded on the dishes with the ECM layers prepared in this way. The influence of the pectin hydrolysate on cell growth was determined by counting the cells. For this, the cells were again removed after 48 hours with trypsine/EDTA solution in HBBS (10 min) and were washed in PBS solution. Then the number of living cells was determined by staining with trypan blue solution (650 mg trypan blue in 400 ml 0.9% NaCl, 1:1 (v/v)) in a Neubauer counting chamber. As a control, experiments were performed with glucose.

[5] = test system: HT-29; assay: as above; format: cell-based, human; details: for Reduction in Cell Growth: 48 hours
Experimental: as §4

[6] = test system: Caco-2 cells
Text: The test is based on the migration of cells through the pores of a nucleopore polycarbonate filter in a protein gel that contains several ECM proteins, such as, for example, type 1 and type III collagen, fibronectin, and laminin, to a nitrocellulose filter. […] As a control, the effect of glucose on the invasive capacity of Caco-2 cells was studied.

[7] = target: T1, galectin-3 on Caco-2 colon cancer cells (Homo sapiens, UniProt P17931); assay: Inhibition of anti-galectin-3 monoclonal antibody binding, immunofluorescence/flow cytometry
T1 construct: endogenous in cells; host or cells: Caco-2 human colon cancer cells
T1 sequence (P17931 whole entry): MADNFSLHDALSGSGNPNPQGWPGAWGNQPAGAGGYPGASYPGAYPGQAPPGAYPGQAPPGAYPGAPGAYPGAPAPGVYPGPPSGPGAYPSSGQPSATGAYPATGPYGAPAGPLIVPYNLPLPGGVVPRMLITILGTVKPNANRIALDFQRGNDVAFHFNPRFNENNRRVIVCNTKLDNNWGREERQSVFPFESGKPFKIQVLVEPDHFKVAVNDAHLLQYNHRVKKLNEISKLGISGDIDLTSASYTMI
Experimental: (§5) The expression of galectin-3 on colon cancer cells was determined with immunofluorescence/flow cytometry methods using an anti-galectin-3-specific monoclonal antibody (mouse-Ig) and a corresponding anti-mouse FITC-coupled secondary antibody.

[8] = target: T2, galectin-3 on HT 29 colon cancer cells (Homo sapiens, UniProt P17931); assay: as above
T2 construct: endogenous in cells; host or cells: HT-29 (HT 29) human colon cancer cells
T2 sequence (P17931 whole entry): as above
Experimental: as §5

[9] = Caco-2, in relation to the concentration used
[10] = HT 29, in relation to the concentration used

For `O=C(O)[C@H]1O[C@H](O[C@@H]2[C@H](O)[C@@H](O)[C@@H](O[C@@H]3[C@H](O)[C@@H](O)C(O)O[C@@H]3C(=O)O)O[C@@H]2C(=O)O)[C@H](O)[C@@H](O)[C@H]1O` (some centres unmarked) [trigalacturonide], the “blocking of the adhesion” value [1] is listed as at most 84.6%.

For `O=C(O)[C@H]1O[C@H](O[C@@H]2[C@H](O)[C@@H](O)[C@@H](O)O[C@@H]2C(=O)O)[C@H](O)[C@@H](O)[C@H]1O` [digalacturonide], the “blocking of the adhesion” value [1] is given as at most 91.7%.

For `OC[C@H]1O[C@H](O[C@]2(CO)O[C@H](CO[C@H]3O[C@H](CO)[C@@H](O)[C@H](O)[C@H]3O)[C@@H](O)[C@@H]2O)[C@H](O)[C@@H](O)[C@@H]1O` [isomelezitose], the “blockage of germ adhesion to the epithelial cells” value (shortened to “blockage of germ adhesion”) [2] was “No reduction” and the “blockage of germ adhesion” value [3] was “No reduction”.

With `O=C[C@H](O)[C@@H](O)[C@H](O)[C@H](O)CO` [Glucose, glucose] the “Reduction in Cell Growth” value ([4]; Caco-2, concentration 0.01%) was 0%, the “Reduction in Cell Growth” value ([4]; Caco-2, concentration 0.1%) was 0% and the “Reduction in Cell Growth” value ([4]; Caco-2, concentration 1.0%) was 0%. The “reduced cell growth (text summary of Table 1)” value [4, 9] was “no influence”, the “Reduction in Cell Growth” value ([5]; HT 29, concentration 0.01%) was 0% and the “Reduction in Cell Growth” value ([5]; HT 29, concentration 0.1%) was 1%. For the same compound, the “Reduction in Cell Growth” value ([5]; HT 29, concentration 1.0%) was 0%, the “reduced cell growth (text summary of Table 1)” value [5, 10] was “no influence” and the “reduction of the invasive capacity of Caco-2 cells (text summary of Table 2)” value [6] was “only caused a slight reduction”. The “Reduction of Binding Monoclonal Anti-Galectin-3 Antibody” value ([7]; Caco-2, concentration 0.01%) was 0, the “Reduction of Binding Monoclonal Anti-Galectin-3 Antibody” value ([7]; Caco-2, concentration 0.1%) was 0 and the “Reduction of Binding Monoclonal Anti-Galectin-3 Antibody” value ([7]; Caco-2, concentration 1.0%) was 0. For the same compound, the “reduction of the binding of the monoclonal anti-galectin-3 antibody (Table 3)” value [7, 9] was “not at all or only slightly”, the “Reduction of Binding Monoclonal Anti-Galectin-3 Antibody” value ([8]; HT 29, concentration 0.01%) was 0 and the “Reduction of Binding Monoclonal Anti-Galectin-3 Antibody” value ([8]; HT 29, concentration 0.1%) was 0. For the same compound, the “Reduction of Binding Monoclonal Anti-Galectin-3 Antibody” value ([8]; HT 29, concentration 1.0%) was 2 and the “reduction of the binding of the monoclonal anti-galectin-3 antibody (Table 3)” value [8, 10] was “not at all or only slightly”.

With `OC[C@H]1O[C@H](OC[C@H]2O[C@H](O[C@]3(CO)O[C@H](CO)[C@@H](O)[C@@H]3O)[C@H](O)[C@@H](O)[C@@H]2O)[C@H](O)[C@@H](O)[C@H]1O` [raffinose] the “blockage of germ adhesion” value [2] was “No reduction” and the “blockage of germ adhesion” value [3] was “No reduction”.

In the case of `O=C(O)[C@H]1OC(O)[C@H](O)[C@@H](O)[C@H]1O` (some centres unmarked) [monogalacturonic acid], the “blocking of the adhesion” value [1] is listed as “no blocking”.

In the case of `OC[C@H]1O[C@@](CO)(OC[C@@]2(OC[C@@]3(O[C@H]4O[C@H](CO)[C@@H](O)[C@H](O)[C@H]4O)O[C@H](CO)[C@@H](O)[C@@H]3O)O[C@H](CO)[C@@H](O)[C@@H]2O)[C@@H](O)[C@@H]1O` [nystose], the “blockage of germ adhesion” value [2] is reported as “No reduction” and the “blockage of germ adhesion” value [3] is reported as “No reduction”.
